Assays:
[1] = cited from earlier work
[2] = Previous studies of antidepressant plasma/serum concentrations in pregnancy (literature quoted in the Discussion); format: in vivo, human; settings: 0.3 ng/mL per gestational week applied to this study's data
[3] = Dose-adjusted serum antidepressant concentrations across pregnancy compared to the women's own baseline (routine TDM, LC-MS, linear mixed model); format: in vivo, human
From the text: After obtaining approval from the Regional Committee for Medical and Health Research Ethics in Mid Norway, the Norwegian Centre for Research Data (Data Protection Official), the Norwegian Directorate of Health and the Medical Birth Registry of Norway (MBRN) publication council, serum concentration data for antidepressants were collected from the two largest TDM services for psychotropic drugs in Norway (i.e. Department of Clinical Pharmacology at St. Olav University Hospital in Trondheim, and Center for Psychopharmacology at Diakonhjemmet Hospital in Oslo). […] The antidepressant TDM data contain serum concentration measurements taken in a naturalistic setting from psychiatry inpatients and outpatients. In addition to measured serum concentrations, the databases contain information obtained from the requisition forms, such as the prescribed antidepressant dose, time of last drug intake, time of blood sampling, and types and doses of concomitant drugs.
First, a combined laboratory TDM file was created, containing all serum concentration measurements (for any drug) in the period October 1999 –December 2011 for all women of reproductive age (i.e. born 1950–2000). […] Using the unique 11-digit identification number assigned to all individuals living in Norway, the MBRN could identify all pregnant women in the TDM data set. […] For the current study we retrieved the following information: the personal identification number, the drug analysed, the measured drug serum concentration, time of last dose, time of sampling, drug dose, concomitant drug use, other clinical information, name of the responsible physician, gestational week at the time of sampling (calculated from the sampling date and the pregnancy onset date as determined by obstetric ultrasound if available, or by last menstruation), and date of delivery.
If the requisition form lacked information on drug dose the authors contacted the responsible physician, who attempted to obtain this information from the medical record. If we were unable to retrieve this information, the analysis was excluded.
Having identified the pregnant women and their individual pregnancy periods in the extracted data file, we used the original TDM databases to retrieve serum concentration measurements before and after pregnancy from the same women, to serve as baseline observations for each of the included subjects. […] These analyses were not used in the statistical model, only for visual comparison. The remaining 420 analyses were used for the statistical comparisons.
Since multiple measurements were available from the same patient a linear mixed model was used. […] Baseline measurements were set to gestational week 0 in the model. Then, the effect of gestational week on concentration compared to baseline could be estimated for each drug.
Data are presented as means with 95% confidence intervals.

[4] = in vivo
Description: Quantification of the drug concentrations was performed with liquid chromatography-mass spectrometry/tandem mass spectrometry (LC-MS/LC-MS/MS). […] In brief, the drugs were extracted from serum by liquid-liquid extraction, using a mixture of hexane, acetonitrile and/or butanol, or dichloromethane and isopropanol. Thereafter, the analytes were separated on C18 columns using methanol, acetonitrile, formic acid or ammonium acetate as mobile phases, and quantified on LC-MS or LC-MS-MS systems. Calibration curves were constructed for each assay with drug-free human serum by the addition of varying concentrations of the antidepressants and their respective metabolites.
Serum concentrations in ng/mL were divided by the daily dose used by the person at the time of sampling, providing a serum concentration/dose ratio, and then multiplied by the defined daily dose (DDD), which is the assumed average maintenance dose per day for that drug used for its main indication in adults [28]. […] All concentrations presented and discussed in this article, including tables and figures, are dose-adjusted to the DDD of the drug.
For drugs where both the parent drug and the metabolite were measured, parent drug/metabolite concentration ratios during pregnancy were compared to baseline values as described above; ratios were loge-transformed and fitted into a linear mixed model, estimating the baseline ratios and the effect of each gestational week.
All model parameters, including variance components, were estimated by the method of maximum likelihood using STATA 13 command “mixed”. […] P values less than 0.05 were considered statistically significant.

SMILES	Concentrations in third trimester compared to postpartum (in words) ([1]; 12 pregnancies, no numbers provided, ref Brogtrop et al. [17])	Increase of maternal plasma concentration per gestational week ([1]; intermediate and poor CYP2D6 metabolizers)	Decline of maternal plasma concentration per gestational week ([1]; ultrarapid or extensive CYP2D6 metabolizers, 74 pregnancies, ref Ververs et al. [20])	Reduction in week 34 to which the cited decline per week translates for the present data [2] [%]	Serum concentration in pregnancy as share of pre-pregnancy levels ([3]; drop to about this share of pre-pregnancy levels)	Serum concentration in third trimester lower than baseline (reduction) ([3]; mid third trimester (gestational week 34) vs baseline, value given as size of the reduction) [%]	Loge serum concentration, Change per gestational week estimate (parent compound or metabolite) [4]
Fc1ccc([C@@H]2CCNC[C@H]2COc2ccc3c(c2)OCO3)cc1 [Paroxetine]	lower concentrations in the third trimester compared to postpartum	0.6 ng/mL per gestational week	0.3 ng/mL per gestational week	30	about 50%	51	
CNCCCC1(c2ccc(F)cc2)OCc2cc(C#N)ccc21 (stereo not shown) [Desmethylescitalopram]							-0.004
